Data reported in US6710077B1, “Use of thiocarboxanilide derivatives for the preparation of a medicament for preventing the transmission of HIV to uninfected cells and contraceptive compositions comprising the said derivatives” (Uniroyal Chemical Company, Inc., priority 1996, dated 2004).

Legend:
[1] = system: HIV-1 chronically-infected H9 cells; test: Incubation of HIV-1 chronically-infected H9 cells with test compounds, then infectivity on MT-2 cells; type: cell-based
Excerpt: FIG. 2 depicts the effect of pretreatment of chronically-infected H9 cells with Compound IA or UC84 on (A) virus particle release from H9 cells during drug exposure, as assessed by measurement of HIV-1 p24 levels; (B) infectivity of isolated virus produced by H9 cells during drug treatment, as assessed by the ability to subsequently infect MT2 cells in the absence of drug; and (C) the ability of Compound IA-pretreated chronically-infected H9 cells to subsequently infect MT2 cells in co-culture experiments carried out in the absence of drug. The data illustrated for (B) and (C) were obtained four days after exposure of MT2 cells to virus or H9 cells, respectively. (∘) Compound UC84; (●) Compound IA.
The cells were then separated from the culture supernatants by centrifugation at 1000×g for 10 min. The virus particles were isolated from the culture supernatants and from residual Compound IA using Centriprep-100 centrifugal concentrating devices and the dilution/concentration protocol described above in Example 1. The pelleted H9 cells were washed by suspension in 10 ml RPMI, followed by centrifugation at 1000×g for 10 min. The cell pellet was resuspended in 4 ml RPMI/10% FBS, and used in co-culture experiments as described below.
Aliquots of the final concentrated HIV suspension were added to MT-2 cells ([…] cells/ml). Virus infectivity was assessed 6 days post-infection by analysis of syncytium formation, and RT activity and p24 antigen in the MT-2 cell culture supernatants. Similarly, aliquots of the drug-treated H9 cells were added to MT-2 cells (3×10^5 cells/ml) to give a final MT-2:H9 cell ratio of 30:1. Cells were co-cultured for 4 days, and HIV infection of MT-2 cells was scored by assessing syncytium formation and by analysis of RT activity in the culture supernatants.

[2] = system: PBL cells isolated from blood of HIV-1 infected patients; test: Incubation of PBL from HIV-1 infected patients with compound, then co-culture with CBMC; type: cell-based; details: for infectivity of HIV-1 produced by patient PBL: 10 μM, 2 hr at 37° C., drug removed, co-culture with CBMC, p24 antigen, FIG. 3
Protocol: FIG. 3 depicts the effect of pretreatment of peripheral blood lymphocytes (PBL) from HIV-1 infected patients with Compound IA on the subsequent virus infectivity of CBMC cells. 2×10^6 isolated PBL cells were incubated for 2 hours with media only (●), 10 μM nevirapine (▪), or 10 μM Compound IA (▴), then residual drug was removed. The cells were then co-cultured with 2×10^6 CBMC cells and p24 production was monitored.
PBL cells (2×10^6 cells) isolated from blood of HIV-1 infected patients were incubated with media, 10 μM nevirapine and 10 μM Compound IA, in a total volume of 1 ml for 2 hr at 37° C. Excess drug was then removed by pelleting the cells by centrifugation at 300×g for 10 min and removal of the medium. The cell pellet was washed by suspension in 10 ml media, followed by centrifugation. This washing step was repeated twice. The final cell pellet was resuspended in 1 ml media, then co-cultured with 1 ml of activated CBMC (2×10^6 cells) The culture medium was changed every two days, and fresh activated CBMC (2×10^6 cells) were added once a week. HIV-1 production was monitored by measurement of p24 antigen levels in cell-free culture supernatants.
FIG. 3 illustrates the results obtained using PBL from three different patients.

[3] = system: HIV-1 infection of uninfected MT-2 cells; details: MT-2 cells pretreated with 2 μM, drug removed, continued presence of HIV-1
Protocol: FIG. 4A: Uninfected MT2 cells were incubated for 18 hours with varying concentrations of Compound IA in 1 ml media, then the cells were pelleted by centrifugation, and washed twice by resuspension in 10 ml medium followed by centrifugation. The cells were exposed to identical inocula of HIV-1 and cultured in the absence of added drug. Four days after removal of Compound IA, the extent of HIV-1 infection was assessed by measurement of syncytia formation (●), viral p24 antigen levels (▴), and RT activity (∘), in cell-free supernatants. […] Uninfected MT2 cells were incubated for 18 hours in the absence (∘) or the presence of 0.5 μM (▴), 1 μM (∇), or 2 μM (●), of Compound IA. […] Viral cytopathicity was scored by microscopic assessment of syncytia formation. […]
FIG. 5A: Uninfected MT2 cells were incubated for 18 hours in the absence (▪) or the presence (●) of 2 μM of Compound IA, then the cells were isolated and cultured in the absence of drug. At various times thereafter, HIV-1 was added and virus infectivity assessed by microscopic analysis of syncytium formation. […]
All cells were cultured in RPMI medium containing 10% fetal bovine serum. […] Virus production was assessed by measurement of RT activity and viral p24 antigen levels in the culture supernatants. […]

[4] = system: HIV-1; test: Preincubation of isolated HIV-1 with test compounds, then infection of PHA-activated CBMC; details: 2 hours at 37° C., drug removed, RT activity and p24 on day 7, FIG. 1
Protocol: Identical viral inocula (with respect to viral p24 levels) were then added to PHA-activated CBMC. Viral infectivity was assessed by measurement of RT activity in cell-free culture supernatants after 7 days incubation of cells and virus. […] The results are averages ±S.D. of triplicate determinations from three separate experiments.
All cells were cultured in RPMI medium containing 10% fetal bovine serum. HIV-1 stocks were propagated by subculture in MT-2 cells; aliquots of the cell-free culture supernatants were generally used as viral inocula. In some cases, virus was further concentrated from these cell-free supernatants by ultracentrifugation. CBMC were prestimulated with phytohemagglutinin (PHA) prior to use in infection experiments, as described in Rooke et al, Virology 176: 205-215 (1990). Stock solutions of the test compounds were prepared in dimethyl sulfoxide (DMSO). […] Virus production was assessed by measurement of RT activity and viral p24 antigen levels in the culture supernatants.
After incubation, drug-free RPMI was added to a final volume of 15 ml and the diluted sample was concentrated to a final volume of 0.7 ml using a Centriprep-100 centrifugal concentrating device, according to manufacturer's directions. […] On day 7, culture supernatants were isolated and HIV production assessed by measurement of RT activity and p24 antigen levels in the cell-free supernatants.

| Structure (SMILES) | persistence of attenuated infectivity following removal of extracellular compound ([1]; chronically-infected H9 cells) | infectivity of virus produced by H9 cells following removal of compound ([1]; pretreated, washed H9 cells co-cultured with MT-2 cells in absence of drug) | infectivity of virus particles isolated after exposure of chronically-infected H9 cells ([1]; virus isolated from culture supernatants, added to MT-2 cells in absence of drug, FIG. 2) | viral infectivity after 30 days co-culture with uninfected CBMC ([2]; 10 μM pretreatment of patient PBL, 30 days co-culture) | infectivity of HIV-1 produced by patient PBL [2] | duration of resistance to the cytopathic effect of HIV-1 [3] | resistance of pretreated cells to the cytopathic effect of HIV-1 ([3]; syncytium formation) | viral infectivity after preincubation of isolated HIV-1 with compound [4] |
| --- | --- | --- | --- | --- | --- | --- | --- | --- |
| CC(C)=CCOc1cc(NC(=S)c2ccoc2C)ccc1Cl [Compound IA, N-[4-chloro-3-(3-methyl-2-butenyloxy)phenyl]-2-methyl-3-furancarbothioamide] | at least 4 days | also attenuated in infectivity | significantly attenuated in infectivity | No viral infectivity | abolished the infectivity | at least 9 days | completely resistant | rendered non-infectious |
| Cc1ccnc2c1NC(=O)c1cccnc1N2C1CC1 [nevirapine, reference compound] |  |  |  |  | unable to significantly delay viral infectivity |  |  | No viral inactivation |
